Test results from US20180194799A1, “BETUIN DERIVATIVES FOR PREVENTING OR TREATING HIV INFECTIONS” (GLAXOSMITHKLINE INTELLECTUAL PROPERTY (NO.2) LIMITED, priority 2015, published 2018).
Where a name gives a salt, the structure may show the parent alone.

Tests used:
V370A = test: MT4 Cell Antiviral Assay, V370A; type: cell-based, HIV-1; settings: Human immunodeficiency virus 1, MT4, 120 h, read-out: EC50 V370A (nM)
NL4-3 wt = test: MT4 Cell Antiviral Assay, NL4-3 wt; type: cell-based, HIV-1; settings: Human immunodeficiency virus 1, NL43, 120 h; HIV MT4 Antiviral Cell Assay of Example 17, 5 days incubation
HIV = settings: cited from earlier work
HIV-1 (strain IIIB) = test: MT4 Cell Antiviral Assay (general statements and standard); type: cell-based; settings: Human immunodeficiency virus 1, IIIB; control and standard in every assay, propidium iodide readout, MT4 cells; read-out: expected range of IC50 values
Description: Antiviral HIV activity and compound-induced cytotoxicity were measured in parallel by means of a propidium iodide based procedure in the human T-cell lymphotropic virus transformed cell line MT4. Aliquots of the test compounds were serially diluted in medium (RPMI 1640, 10% fetal calf serum (FCS), and gentamycin) in 96-well plates (Costar 3598) using a Cetus Pro/Pette. Exponentially growing MT4 cells were harvested and centrifuged at 1000 rpm for 10 min in a Jouan centrifuge (model CR 4 12). Cell pellets were resuspended in fresh medium (RPMI 1640, 20% FCS, 20% IL-2, and gentamycin) to a density of 5×10^5 cells/ml. Cell aliquots were infected by the addition of HIV-1 (strain IIIB) diluted to give a viral multiplicity of infection of 100×TCID50. […]
For propidium iodide readout, 27 μl of 5% Nonidet-40 was added to each well of the incubation plate. […]
For MTS readout, 20 μl CellTiter 96 AQ One Solution reagent (Promega #G3582) was added to each well. At 75 minutes following the addition of MTS reagent, absorbance was read at 492 nm using a Tecan Sunrise 96-well plate reader. […]
For each assay plate, the results (relative fluorescence units, rfU, or OD values) of wells containing uninfected cells or infected cells with no compound were averaged, respectively. […] Percent of cells remaining is determined by the following formula: […]

Row | Compound | EC50 (V370A) | EC50 (NL4-3 wt) | HIV viral load reduction (mean) (HIV; patients with trough levels >=20 μg/mL and without baseline Gag polymorphisms at Q369, V370 or T371) | viral load reduction versus patients without Gag polymorphisms (HIV; users with Gag polymorphisms at Q369, V370 or T371) | IC50 (HIV-1 (strain IIIB))
1 | COCC(=O)N(CC1CC1)C[C@H](O)[C@@]12CC[C@]3(C)[C@H](CC[C@@H]4[C@@]5(C)CC=C(c6ccc(C(=O)O)cc6)C(C)(C)C5CC[C@]43C)C1=C(C(C)C)C(=O)C2 (stereo in doubt) [Example 2, 4-((3aR,5aR,5bR,7aR,11aS,11bR,13aS)-3a-((R)-2-(N-(cyclopropylmethyl)-2-methoxyacetamido)-1-hydroxyethyl)-1-isopropyl-5a,5b,8,8,11a-pentamethyl-2-oxo-3,3a,4,5,5a,5b,6,7,7a,8,11,11a,11b,12,13,13a-hexadecahydro-2H-cyclopenta[a]chrysen-9-yl)benzoic acid] | 389 nM | 15.5 nM |  |  | 
2 | C=C(C)[C@@H]1CC[C@]2(C(=O)O)CC[C@]3(C)[C@H](CC[C@@H]4[C@@]5(C)CC[C@H](OC(=O)CC(C)(C)C(=O)O)C(C)(C)[C@@H]5CC[C@]43C)[C@@H]12 [Bevirimat] |  |  | 1.3 log10/mL | significantly lower load reductions | 
3 | CC(C)C1=C2[C@H]3CC[C@@H]4[C@@]5(C)CC=C(c6ccc(C(=O)O)cc6)C(C)(C)[C@@H]5CC[C@@]4(C)[C@]3(C)CC[C@@]2([C@@H](O)CNCC2CC2)CC1=O [Example 9, 4-((3aR,5aR,5bR,7aR,11aS,11bR,13aS)-3a-((R)-2-((cyclopropylmethyl)amino)-1-hydroxyethyl)-1-isopropyl-5a,5b,8,8,11a-pentamethyl-2-oxo-3,3a,4,5,5a,5b,6,7,7a,8,11,11a,11b,12,13,13a-hexadecahydro-2H-cyclopenta[a]chrysen-9-yl)benzoic acid hydrochloride] | 10000 nM | 69.2 nM |  |  | 
4 | CC(C)C1=C2[C@H]3CC[C@@H]4[C@@]5(C)CC=C(c6ccc(C(=O)O)cc6)C(C)(C)C5CC[C@@]4(C)[C@]3(C)CC[C@@]2([C@@H](O)CN(CC2CC2)C(=O)CN2CCCC2=O)CC1=O (stereo in doubt) [Example 4, 4-((3aR,5aR,5bR,7aR,11aS,11bR,13aS)-3a-((R)-2-(N-(cyclopropylmethyl)-2-(2-oxopyrrolidin-1-yl)acetamido)-1-hydroxyethyl)-1-isopropyl-5a,5b,8,8,11a-pentamethyl-2-oxo-3,3a,4,5,5a,5b,6,7,7a,8,11,11a,11b,12,13,13a-hexadecahydro-2H-cyclopenta[a]chrysen-9-yl)benzoic acid] | 1020 nM | 10.2 nM |  |  | 
5 | CC(C)C1=C2[C@H]3CC[C@@H]4[C@@]5(C)CC=C(c6ccc(C(=O)O)cc6)C(C)(C)C5CC[C@@]4(C)[C@]3(C)CC[C@@]2([C@@H](O)CN(CC2CCC2)C(=O)CN2CCCC2)CC1=O (stereo in doubt) [Example 5, 4-((3aR,5aR,5bR,7aR,11aS,11bR,13aS)-3a-((R)-2-(N-(cyclobutylmethyl)-2-(pyrrolidin-1-yl)acetamido)-1-hydroxyethyl)-1-isopropyl-5a,5b,8,8,11a-pentamethyl-2-oxo-3,3a,4,5,5a,5b,6,7,7a,8,11,11a,11b,12,13,13a-hexadecahydro-2H-cyclopenta[a]chrysen-9-yl)benzoic acid hydrochloride] | 3.8 nM | 35.4 nM |  |  | 
6 | CC(C)C1=C2[C@H]3CC[C@@H]4[C@@]5(C)CC=C(c6ccc(C(=O)O)cc6)C(C)(C)[C@@H]5CC[C@@]4(C)[C@]3(C)CC[C@@]2([C@@H](O)CN(CCN(C)C)CC2CC2)CC1=O [Example 10, 4-((3aR,5aR,5bR,7aR,11aS,11bR,13aS)-3a-((R)-2-((cyclopropylmethyl)(2-(dimethylamino)ethyl)amino)-1-hydroxyethyl)-1-isopropyl-5a,5b,8,8,11a-pentamethyl-2-oxo-3,3a,4,5,5a,5b,6,7,7a,8,11,11a,11b,12,13,13a-hexadecahydro-2H-cyclopenta[a]chrysen-9-yl)benzoic acid hydrochloride] | 7.9 nM | 7.8 nM |  |  | 
7 | Cc1cn([C@H]2C[C@H](N=[N+]=[N-])[C@@H](CO)O2)c(=O)[nH]c1=O [3′-azido-3′-deoxythymidine] |  |  |  |  | 40 to 120 nM
8 | CC(C)C1=C2[C@H]3CC[C@@H]4[C@@]5(C)CC=C(c6ccc(C(=O)O)cc6)C(C)(C)C5CC[C@@]4(C)[C@]3(C)CC[C@@]2([C@@H](O)CN(CC2CC2)C(=O)CN2CCCC2)CC1=O (stereo in doubt) [Example 3, 4-((3aR,5aR,5bR,7aR,11aS,11bR,13aS)-3a-((R)-2-(N-(cyclopropylmethyl)-2-(pyrrolidin-1-yl)acetamido)-1-hydroxyethyl)-1-isopropyl-5a,5b,8,8,11a-pentamethyl-2-oxo-3,3a,4,5,5a,5b,6,7,7a,8,11,11a,11b,12,13,13a-hexadecahydro-2H-cyclopenta[a]chrysen-9-yl)benzoic acid hydrochloride] | 6.5 nM | 2.8 nM |  |  | 
9 | CC(C)C1=C2[C@H]3CC[C@@H]4[C@@]5(C)CC=C(c6ccc(C(=O)O)cc6)C(C)(C)C5CC[C@@]4(C)[C@]3(C)CC[C@@]2([C@@H](O)CN(CC2CCC2)C(=O)CN(C)C)CC1=O (stereo in doubt) [Example 6, 4-((3aR,5aR,5bR,7aR,11aS,11bR,13aS)-3a-((R)-2-(N-(cyclobutylmethyl)-2-(dimethylamino)acetamido)-1-hydroxyethyl)-1-isopropyl-5a,5b,8,8,11a-pentamethyl-2-oxo-3,3a,4,5,5a,5b,6,7,7a,8,11,11a,11b,12,13,13a-hexadecahydro-2H-cyclopenta[a]chrysen-9-yl)benzoic acid hydrochloride] | 8.9 nM | 3 nM |  |  | 
10 | COCC(=O)N(CC1CC1)C[C@H](O)[C@@]12CC[C@]3(C)[C@H](CC[C@@H]4[C@@]5(C)CC=C(c6cn(CC(=O)O)nn6)C(C)(C)[C@@H]5CC[C@]43C)C1=C(C(C)C)C(=O)C2 [Example 12, 2-(4-((3aR,5aR,5bR,7aR,11aS,11bR,13aS)-3a-((R)-2-(N-(cyclopropylmethyl)-2-methoxyacetamido)-1-hydroxyethyl)-1-isopropyl-5a,5b,8,8,11a-pentamethyl-2-oxo-3,3a,4,5,5a,5b,6,7,7a,8,11,11a,11b,12,13,13a-hexadecahydro-2H-cyclopenta[a]chrysen-9-yl)-1H-1,2,3-triazol-1-yl)acetic acid hydrochloride] | 15500 nM | 20400 nM |  |  | 
11 | CC(C)C1=C2[C@H]3CC[C@@H]4[C@@]5(C)CC=C(c6ccc(C(=O)O)cc6)C(C)(C)[C@@H]5CC[C@@]4(C)[C@]3(C)CC[C@@]2([C@@H](O)CN(CC2CC2)C(=O)CN(C)C)CC1=O [Example 1, 4-((3aR,5aR,5bR,7aR,11aS,11bR,13aS)-3a-((R)-2-(N-(cyclopropylmethyl)-2-(dimethylamino)acetamido)-1-hydroxyethyl)-1-isopropyl-5a,5b,8,8,11a-pentamethyl-2-oxo-3,3a,4,5,5a,5b,6,7,7a,8,11,11a,11b,12,13,13a-hexadecahydro-2H-cyclopenta[a]chrysen-9-yl)benzoic acid] | 17 nM | 3.7 nM |  |  | 
12 | CC(=O)N(CC1CC1)C[C@H](O)[C@@]12CC[C@]3(C)[C@H](CC[C@@H]4[C@@]5(C)CC=C(c6ccc(C(=O)O)cc6)C(C)(C)[C@@H]5CC[C@]43C)C1=C(C(C)C)C(=O)C2 [Example 11, 4-((3aR,5aR,5bR,7aR,11aS,11bR,13aS)-3a-((R)-2-(N-(cyclopropylmethyl)acetamido)-1-hydroxyethyl)-1-isopropyl-5a,5b,8,8,11a-pentamethyl-2-oxo-3,3a,4,5,5a,5b,6,7,7a,8,11,11a,11b,12,13,13a-hexadecahydro-2H-cyclopenta[a]chrysen-9-yl)benzoic acid] | 24.5 nM | 39.8 nM |  |  | 
